Results taken from US20230416228A1 (Forkhead Biotherapeutics, Inc., priority 2020, published 2023).

target: T1, human FOXO1 (constitutively active form Thr24Ala, Ser256Ala, Ser319Ala) (Homo sapiens, UniProt Q12778, S256A/S319A/T24A); assay: FOXO1 inhibitor activity assay: cell-based transcriptional (luciferase) reporter assay in HEK293 cells; settings: HEK293 cells transfected with insulin response element firefly luciferase reporter, FOXO1 and Renilla luciferase; 10-point dose response 50 μM to 2.5 nM; 24 hours
T1 construct: expressed in transfected cells; host or cells: HEK293 cells transfected with pcDNA3.1 plasmid
T1 sequence (Q12778 whole entry T24A/S256A/S319A): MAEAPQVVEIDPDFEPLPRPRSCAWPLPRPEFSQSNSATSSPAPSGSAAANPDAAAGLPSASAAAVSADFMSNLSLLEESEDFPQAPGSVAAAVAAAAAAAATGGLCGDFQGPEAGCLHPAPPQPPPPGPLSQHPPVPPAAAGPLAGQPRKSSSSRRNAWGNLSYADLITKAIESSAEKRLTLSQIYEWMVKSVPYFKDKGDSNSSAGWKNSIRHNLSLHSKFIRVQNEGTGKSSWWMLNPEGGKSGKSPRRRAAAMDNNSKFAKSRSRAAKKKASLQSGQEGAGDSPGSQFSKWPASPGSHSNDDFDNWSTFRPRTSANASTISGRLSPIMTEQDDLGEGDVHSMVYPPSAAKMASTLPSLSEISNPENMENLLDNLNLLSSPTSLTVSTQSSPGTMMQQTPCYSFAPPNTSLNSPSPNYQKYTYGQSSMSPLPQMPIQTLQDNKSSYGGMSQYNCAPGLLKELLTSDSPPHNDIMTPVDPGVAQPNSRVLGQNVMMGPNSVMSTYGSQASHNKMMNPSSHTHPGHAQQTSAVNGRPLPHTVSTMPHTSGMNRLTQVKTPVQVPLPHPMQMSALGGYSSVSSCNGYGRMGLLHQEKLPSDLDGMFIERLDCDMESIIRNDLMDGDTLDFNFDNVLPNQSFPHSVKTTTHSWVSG
Protocol: The inhibitory activities of compounds on FOXO1 were determined by a cell-based transcriptional reporter assay. HEK293 cells were plated onto either 384-well poly-D-lysine coated plates (at 7500 cells per well) or 96-well plates (at 20000 cells per well) in low glucose Eagle's Minimum Essential Medium (EMEM) containing 1% fetal bovine serum, and incubated overnight at 37° C. and 5% CO2. […] Duplicate wells were included for each treatment condition. Cells were incubated for 24 hours at 37° C. and 5% CO2. Luciferase activities in each well were measured using Dual-Glog Luciferase Assay System (Promega) according to manufacturer's protocol and an Envision plate reader suitable for luminescence detection. Firefly luciferase activity was divided by Renilla luciferase activity to calculate a ratio for each well. The ratio in wells containing cells transfected with all 3 plasmids listed above and receiving only DMSO without compound addition was set to 100%. The ratio in wells containing cells transfected with plasmid (1), plasmid (3), and pcDNA3.1 containing the open reading frame of red fluorescent protein (instead of human FOXO1) and treated with DMSO was set to 0%. The ratio in each well receiving compound treatment was normalized and expressed as a percentage. Data were fit by 4-parameter logistic regression to determine IC50 and maximal inhibition values. Each compound was tested in a minimum of 2 independent experiments.

Question: How did the IC50 turn out when `O=C(Nc1cc(-c2nc3ccccc3[nH]2)[nH]n1)c1ccc(N2CC[C@@H](O)C2)cc1` [Compound A-40, N-[5-(1H-benzimidazol-2-yl)-1H-pyrazol-3-yl]-4-[(3R)-3-hydroxypyrrolidin-1-yl]benzamide] was run?
Answer: < 100 nM

Question: For `CC1CN(c2ccc(C(=O)Nc3cc(-c4nc5ccccc5[nH]4)n(C)n3)cn2)CC(CO)O1` (single isomer, unassigned) [Compound A-293, N-[5-(1H-benzimidazol-2-yl)-1-methyl-pyrazol-3-yl]-6-[2-(hydroxymethyl)-6-methyl-morpholin-4-yl]pyridine-3-carboxamide], which IC50 is on record?
Answer: 100 to 300 nM

Question: With `O=C(Nc1cc(-c2nc3cc(C(F)(F)F)ccc3[nH]2)[nH]n1)c1ccc(N2CCC(O)CC2)nc1` [Compound A-105, 6-(4-hydroxy-1-piperidyl)-N-[5-[5-(trifluoromethyl)-1H-benzimidazol-2-yl]-1H-pyrazol-3-yl]pyridine-3-carboxamide] as the compound, how does the IC50 read?
Answer: > 1000 nM

Question: How did the IC50 turn out when `CN(C1CCN(c2ccc(C(=O)Nc3cc(-c4nc5ccccc5[nH]4)[nH]n3)cn2)CC1)S(C)(=O)=O` [Compound A-169, N-[5-(1H-benzimidazol-2-yl)-1H-pyrazol-3-yl]-6-[4-[methyl(methyl-sulfonyl)amino]-1-piperidyl]pyridine-3-carboxamide] was run?
Answer: 100 to 300 nM

Question: For `CCOC(=O)[C@@H]1CCCN1c1ccc(C(=O)Nc2cc(-c3nc4ccccc4[nH]3)[nH]n2)cn1` [Compound A-56, ethyl (2S)-1-[5-[[5-(1H-benzimidazol-2-yl)-1H-pyrazol-3-yl]carbamoyl]-2-pyridyl]pyrrolidine-2-carboxylate], which IC50 is on record?
Answer: > 1000 nM

Question: `COCC1CN(c2ccc(C(=O)Nc3cc(-c4nc5ccccc5[nH]4)n(C)n3)cn2)C1` [Compound A-272, N-[5-(1H-benzimidazol-2-yl)-1-methyl-pyrazol-3-yl]-6-[3-(methoxymethyl)azetidin-1-yl]pyridine-3-carboxamide] was tested. Which IC50 did it give?
Answer: < 100 nM

Question: How did the IC50 turn out when `O=C(Nc1cc(-c2nc3ccccc3[nH]2)[nH]n1)c1ccc(N2CCC(C(=O)O)CC2)nc1` [Compound A-51, ammonium 1-[5-[[5-(1H-benzimidazol-2-yl)-1H-pyrazol-3-yl]carbamoyl]-2-pyridyl]piperidine-4-carboxylate] was run?
Answer: > 1000 nM

Question: `Cn1nc(NC(=O)c2ccc(N3CCOCC3)nc2)cc1-c1nc2cccc(F)c2[nH]1` [Compound A-135, N-[5-(4-fluoro-1H-benzimidazol-2-yl)-1-methyl-pyrazol-3-yl]-6-morpholino-pyridine-3-carboxamide] was tested. Which IC50 did it give?
Answer: 100 to 300 nM

Question: `Cn1nc(NC(=O)c2ccc(N3CCN(CCOC4CC4)CC3)nc2)cc1-c1nc2ccccc2[nH]1` [Compound A-266, N-[5-(1H-benzimidazol-2-yl)-1-methyl-pyrazol-3-yl]-6-[4-[2-(cyclo-propoxy)ethyl]piperazin-1-yl]pyridine-3-carboxamide] was tested. Which IC50 did it give?
Answer: < 100 nM

Question: Which IC50 does the source give for `Cn1nc(NC(=O)c2ccc(N3CCN(C(=O)COCCO)CC3)nc2)cc1-c1nc2ccccc2[nH]1` [Compound A-287, N-[5-(1H-benzimidazol-2-yl)-1-methyl-pyrazol-3-yl]-6-[4-[2-(2-hydroxyethoxy)acetyl]piperazin-1-yl]pyridine-3-carboxamide] here?
Answer: 300 to 1000 nM

Question: Which IC50 does the source give for `COc1ccc(C(=O)Nc2nc(-c3nc4ccccc4[nH]3)n(C)n2)cc1Cl` [Compound A-234, N-[5-(1H-benzimidazol-2-yl)-1-methyl-1,2,4-triazol-3-yl]-3-chloro-4-methoxy-benzamide] here?
Answer: 300 to 1000 nM

Question: `CCOC(=O)COc1ccc(C(=O)Nc2cc(-c3nc4ccccc4[nH]3)[nH]n2)cc1Cl` [Compound A-57, ethyl 2-[4-[[5-(1H-benzimidazol-2-yl)-1H-pyrazol-3-yl]carbamoyl]-2-chloro-phenoxy]acetate] was tested. Which IC50 did it give?
Answer: > 1000 nM

Question: How did the IC50 turn out when `O=C(Nc1cc(-c2nc3ccccc3[nH]2)[nH]n1)c1ccc(N2C[C@H](O)[C@@H](O)C2)nc1` [Compound A-60, N-[5-(1H-benzimidazol-2-yl)-1H-pyrazol-3-yl]-6-[(3S,4S)-3,4-dihydroxy-pyrrolidin-1-yl]pyridine-3-carboxamide] was run?
Answer: > 1000 nM

Question: Which IC50 does the source give for `Cc1cc(N2CCOCC2)ncc1C(=O)Nc1cc(-c2nc3ccccc3[nH]2)n(C)n1` [Compound A-232, N-[5-(1H-benzimidazol-2-yl)-1-methyl-pyrazol-3-yl]-4-methyl-6-morpholino-pyridine-3-carboxamide] here?
Answer: > 1000 nM

Question: How did the IC50 turn out when `COC1CCN(c2ccc(C(=O)Nc3cc(-c4nc5cccc(F)c5[nH]4)n(C)n3)cn2)CC1` [Compound A-157] was run?
Answer: 100 to 300 nM

Question: Which IC50 does the source give for `Cn1nc(NC(=O)c2ccc(N3CC4(COC4)C3)nc2)cc1-c1nc2ccccc2[nH]1` [Compound A-275, N-[5-(1H-benzimidazol-2-yl)-1-methyl-pyrazol-3-yl]-6-(2-oxa-6-azaspiro[3.3]heptan-6-yl)pyridine-3-carboxamide] here?
Answer: 100 to 300 nM

Question: `O=C(Nc1cc(-c2nc3ccccc3[nH]2)[nH]n1)c1ccc(N2CCCC(O)C2)nc1` (stereo not shown) [Compound A-66, N-[5-(1H-benzimidazol-2-yl)-1H-pyrazol-3-yl]-6-(3-hydroxy-1-piperidyl)pyridine-3-carboxamide] was tested. Which IC50 did it give?
Answer: 300 to 1000 nM

Question: How did the IC50 turn out when `COCCN1CCN(c2ccc(C(=O)Nc3cc(-c4nc5cc(F)ccc5[nH]4)n(C)n3)cn2)CC1` [Compound A-149] was run?
Answer: 100 to 300 nM

Question: Which IC50 does the source give for `COC1CN(c2cnc(C(=O)Nc3cc(-c4nc5ccccc5[nH]4)[nH]n3)cn2)C1` [Compound A-186, N-[5-(1H-benzimidazol-2-yl)-1H-pyrazol-3-yl]-5-(3-methoxyazetidin-1-yl)pyrazine-2-carboxamide] here?
Answer: > 1000 nM

Question: `Cn1nc(NC(=O)c2ccc(N3CCN4C(=O)CC[C@@H]4C3)nc2)cc1-c1nc2ccccc2[nH]1` [Compound A-249, 6-[(8aR)-6-oxo-1,3,4,7,8,8a-hexahydropyrrolo[1,2-a]pyrazin-2-yl]-N-[5-(1H-benzimidazol-2-yl)-1-methyl-pyrazol-3-yl]pyridine-3-carboxamide] was tested. Which IC50 did it give?
Answer: 100 to 300 nM

Question: `Cn1nc(NC(=O)c2ccc(N3CCN(C(=O)CN)CC3)nc2)cc1-c1nc2ccccc2[nH]1` [Compound A-289, 6-[4-(2-aminoacetyl)piperazin-1-yl]-N-[5-(1H-benzimidazol-2-yl)-1-methyl-pyrazol-3-yl]pyridine-3-carboxamide] was tested. Which IC50 did it give?
Answer: 100 to 300 nM

Question: With `COc1cc(F)c2[nH]c(-c3cc(NC(=O)c4ccc(N5CC(OC)C5)nc4)nn3C)nc2c1` [Compound A-187, N-[5-(7-fluoro-5-methoxy-1H-benzimidazol-2-yl)-1-methyl-pyrazol-3-yl]-6-(3-methoxyazetidin-1-yl)pyridine-3-carboxamide] as the compound, how does the IC50 read?
Answer: 300 to 1000 nM

Question: For `CC(=O)N1CCN(c2ccc(C(=O)Nc3cc(-c4nc5ccccc5[nH]4)n(C)n3)cn2)CC1` [Compound A-226, 6-(4-acetylpiperazin-1-yl)-N-[5-(1H-benzimidazol-2-yl)-1-methyl-pyrazol-3-yl]pyridine-3-carboxamide], which IC50 is on record?
Answer: 100 to 300 nM

Question: For `Cc1nc(N2CCN(C3COC3)CC2)ccc1C(=O)Nc1cc(-c2nc3ccccc3[nH]2)n(C)n1` [Compound A-264, N-[5-(1H-benzimidazol-2-yl)-1-methyl-pyrazol-3-yl]-2-methyl-6-[4-(oxetan-3-yl)piperazin-1-yl]pyridine-3-carboxamide], which IC50 is on record?
Answer: 300 to 1000 nM

Question: Which IC50 does the source give for `COc1cc(F)c2[nH]c(-c3cc(NC(=O)c4ccc(N5CCN(C(C)=O)CC5)nc4)nn3C)nc2c1` [Compound A-240, 6-(4-acetylpiperazin-1-yl)-N-[5-(7-fluoro-5-methoxy-1H-benzimidazol-2-yl)-1-methyl-pyrazol-3-yl]pyridine-3-carboxamide] here?
Answer: < 100 nM

Question: For `O=C(Nc1cc(-c2nc3ccccc3[nH]2)[nH]n1)c1ccc(N2CCN(C3COC3)CC2)cc1` [Compound A-220, N-[5-(1H-benzimidazol-2-yl)-1H-pyrazol-3-yl]-4-[4-(oxetan-3-yl)piperazin-1-yl]benzamide], which IC50 is on record?
Answer: < 100 nM

Question: Which IC50 does the source give for `C[C@H]1CN(c2ccc(C(=O)Nc3cc(-c4nc5ccccc5[nH]4)n(C)n3)cn2)CCN1` [Compound A-245, N-[5-(1H-benzimidazol-2-yl)-1-methyl-pyrazol-3-yl]-6-[(3S)-3-methylpiperazin-1-yl]pyridine-3-carboxamide] here?
Answer: < 100 nM

Question: `COC1CCN(c2ccc(C(=O)Nc3cc(-c4nc5ccccc5[nH]4)[nH]n3)cn2)CC1` [Compound A-159, N-[5-(1H-benzimidazol-2-yl)-1H-pyrazol-3-yl]-6-(4-methoxy-1-piperidyl)-pyridine-3-carboxamide] was tested. Which IC50 did it give?
Answer: < 100 nM

Question: How did the IC50 turn out when `O=C(Nc1cc(-c2nc3ccccc3[nH]2)[nH]n1)c1ccc(N2CCS(=O)(=O)CC2)nc1` [Compound A-49, N-[5-(1H-benzimidazol-2-yl)-1H-pyrazol-3-yl]-6-(1,1-dioxo-1,4-thiazinan-4-yl)pyridine-3-carboxamide] was run?
Answer: 300 to 1000 nM

Question: `Cn1nc(NC(=O)c2ccc(N3CCNC(=O)C3)nc2)cc1-c1nc2ccccc2[nH]1` [Compound A-221, N-[5-(1H-benzimidazol-2-yl)-1-methyl-pyrazol-3-yl]-6-(3-oxopiperazin-1-yl)pyridine-3-carboxamide] was tested. Which IC50 did it give?
Answer: 300 to 1000 nM

Question: For `Cn1nc(NC(=O)c2ccc(OCCO)c(Cl)c2)cc1-c1nc2ccccc2[nH]1` [Compound A-202, N-[5-(1H-benzimidazol-2-yl)-1-methyl-pyrazol-3-yl]-3-chloro-4-(2-hydroxyethoxy)benzamide], which IC50 is on record?
Answer: < 100 nM
